Experimental data taken from patent publication US4628047A (priority 1982, dated 1986).
≈ marks a conversion by molar mass, not a printed value. Counter-ions that a name gives are not always drawn. Like-named read-outs stand apart in the source and are kept apart here.

Legend:
[1] = tested on: P388 leukemia cells; test: Growth inhibition of non-resistant P388 leukemia cells; assay type: cell-based; conditions: for IC50: Mus musculus
[2] = tested on: P388/ADM; test: Growth inhibition of ADM-resistant P388 leukemia cells (P388/ADM); assay type: cell-based; conditions: for IC50: Mus musculus; for Enhancement effect: on ADM
[3] = tested on: chronic myeloplast
[4] = tested on: VCR-resistant P388 leukemia cells; test: Antitumor enhancement effects in mice inoculated with VCR-resistant P388 leukemia cells; assay type: in vivo, CDF1 female mice; conditions: i.p., 10 days
[5] = tested on: ADM-resistant P388 leukemia cells; test: Antitumor enhancement effect in mice inoculated with ADM-resistant P388 leukemia cells; assay type: in vivo, CDF1 female mice; conditions: diltiazem HCl 125 mg/kg alone, i.p., 10 days
[6] = tested on: P388 leukemia cells having resistance to vincristine; test: Growth inhibition of VCR-resistant P388 leukemia cells (P388/VCR); assay type: cell-based; conditions: for Enhancement effect: on VCR; for IC50: Mus musculus
[7] = tested on: K562/VCR; test: Growth inhibition of VCR-resistant K562 leukemia cells (K562/VCR); assay type: cell-based, human; conditions: for Enhancement effect: on VCR; for IC50: Homo sapiens, VCR
[8] = tested on: K562; test: Growth inhibition of K562 leukemia cells; assay type: cell-based, human; conditions: for Enhancement effect: on VCR; for IC50: Homo sapiens, K562, VCR
[9] = tested on: P388 leukemia cells having no resistance or resistance to VCR and ADM and human leukemia cells K562; test: Antitumor enhancement effects of diltiazem in resistant and non-resistant tumor cells (summary); assay type: cell-based; conditions: regardless of whether the tumor cells are non-resistant or resistant
Description: Antitumor enhancement effects of diltiazem in resistant and non-resistant tumor cells: […]

[10] = tested on: B16 melanoma cells F1; test: Antitumor enhancement effect in solid tumor cells, B16 F1; assay type: cell-based; conditions: on VCR, diltiazem 0 μM
[11] = tested on: Colon 26 tumor cells NL-33; test: Antitumor enhancement effect in solid tumor cells, colon 26 NL-33; assay type: cell-based; conditions: on VCR, diltiazem 0 μM
[12] = tested on: B16 melanoma cells F10; test: Antitumor enhancement effect in solid tumor cells, B16 F10; assay type: cell-based; conditions: on VCR, diltiazem 0 μM
[13] = tested on: Colon 26 tumor cells KL-2; test: Antitumor enhancement effect in solid tumor cells, colon 26 KL-2; assay type: cell-based; conditions: on VCR, diltiazem 0 μM
[14] = tested on: Colon 26 tumor cells C26 mix; test: Antitumor enhancement effect in solid tumor cells, C26 mix; assay type: cell-based; conditions: on VCR, diltiazem 0 μM
[15] = tested on: B16 melanoma cells B16 mix; test: Antitumor enhancement effect in solid tumor cells, B16 mix; assay type: cell-based; conditions: on VCR, diltiazem 0 μM
[16] = tested on: B16 melanoma cells B2; test: Antitumor enhancement effect in solid tumor cells, B16 B2; assay type: cell-based; conditions: on VCR, diltiazem 0 μM
[17] = tested on: B16 melanoma cells BL-6; test: Antitumor enhancement effect in solid tumor cells, B16 BL-6; assay type: cell-based; conditions: on VCR, diltiazem 0 μM
[18] = tested on: Colon 26 tumor cells N-5; test: Antitumor enhancement effect in solid tumor cells, colon 26 N-5; assay type: cell-based; conditions: on VCR, diltiazem 0 μM
[19] = tested on: Colon 26 tumor cells N-1; test: Antitumor enhancement effect in solid tumor cells, colon 26 N-1; assay type: cell-based; conditions: on VCR, diltiazem 0 μM
[20] = diltiazem hydrochloride 180 mg per day, 4 days, in addition to vincristine 1 mg/week
[21] = VCR 30 μg/kg + diltiazem HCl 60 mg/kg
[22] = VCR 30 μg/kg + diltiazem HCl 80 mg/kg
[23] = VCR 30 μg/kg + diltiazem HCl 100 mg/kg
[24] = VCR 30 μg/kg + diltiazem HCl 125 mg/kg
[25] = VCR 100 μg/kg + diltiazem HCl 60 mg/kg
[26] = VCR 100 μg/kg + diltiazem HCl 80 mg/kg
[27] = VCR 100 μg/kg + diltiazem HCl 100 mg/kg
[28] = VCR 100 μg/kg + diltiazem HCl 125 mg/kg
[29] = VCR 200 μg/kg + diltiazem HCl 60 mg/kg
[30] = VCR 200 μg/kg + diltiazem HCl 80 mg/kg
[31] = VCR 200 μg/kg + diltiazem HCl 100 mg/kg
[32] = VCR 200 μg/kg + diltiazem HCl 125 mg/kg

## COc1cccc2c1C(=O)c1c(O)c3c(c(O)c1C2=O)C[C@@](O)(C(=O)CO)C[C@@H]3O[C@H]1C[C@H](N)[C@H](O)[C@H](C)O1 [ADM, doxorubicin]
[1]; P388, ADM, diltiazem 0 μM
  IC50: 10 ± 2.1 ng/mL (≈ 18.4 nM)
[1]; P388, ADM, with diltiazem 10 μM
  IC50: 7.7 ± 3.6 ng/mL (≈ 14.2 nM)
[1]; P388, ADM, with diltiazem 35 μM
  IC50: 6.9 ± 0.7 ng/mL (≈ 12.7 nM)
[1]; P388, ADM, with diltiazem 100 μM
  IC50: 6 ± 0.4 ng/mL (≈ 11 nM)
[1]; on ADM, diltiazem 0 μM
  Enhancement effect: 1
[2]; ADM, diltiazem 0 μM
  IC50: 592 ± 76.8 ng/mL (≈ 1090 nM)
[2]; ADM, with diltiazem 10 μM
  IC50: 133 ± 18.4 ng/mL (≈ 245 nM)
[2]; ADM, with diltiazem 35 μM
  IC50: 53.7 ± 3.1 ng/mL (≈ 98.8 nM)
[2]; ADM, with diltiazem 100 μM
  IC50: 30.7 ± 4.1 ng/mL (≈ 56.5 nM)
[2]; read-out: concentration of doxorubicin showing 50% inhibition of the cells, with diltiazem 100 μM
  IC50: ~30 ng/mL (≈ 55.2 nM)
[2]; read-out: dose for showing 50% inhibition of the tumor cells, doxorubicin alone
  IC50: 592 ng/mL (≈ 1090 nM)
[2]; diltiazem 0 μM
  Enhancement effect: 1

## COc1ccc([C@@H]2Sc3ccccc3N(CCN(C)C)C(=O)[C@@H]2OC(C)=O)cc1 [Diltiazem HCl]
[3]; [20]
  both symptoms (leukocytes, splenoma): both symptoms were remarkably improved
  duration of the effect: about two
[3]; human, in vivo
  side effect: no side effect was observed
[4]; [21]
  Survival time: 11.8 ± 1.9 days
  T/V: 111%
[4]; [22]
  Survival time: 13.8 ± 2.3 days
  T/C: 121%
  T/V: 130%
[4]; [23]
  Survival time: 12.2 ± 1.3 days
  T/V: 115%
[4]; [24]
  Survival time: 13.6 ± 1.9 days
  T/C: 119%
  T/V: 125%
[4]; [25]
  Survival time: 13.8 ± 1.7 days
  T/C: 121%
  T/V: 128%
[4]; [26]
  T/C: 126%
  T/V: 133%
[4]; [27]
  T/C: 132%
  T/V: 139%
[4]; [28]
  T/C: 132%
  T/V: 139%
[4]; [29]
  T/C: 130%
  T/V: 119%
[4]; [30]
  T/C: 130%
  T/V: 119%
[4]; [31]
  T/C: 139%
  T/V: 127%
[4]; [32]
  Survival time: 17.0 ± 1.2 days
  T/C: 149%
  T/V: 137%
[4]; diltiazem HCl 100 mg/kg alone
  Survival time: 11.8 ± 0.4 days
[5]
  Survival time: 13.0 ± 0 days

## COc1ccc([C@@H]2Sc3ccccc3N(CCN(C)C)C(=O)[C@@H]2OC(C)=O)cc1 [Diltiazem, d-3-acetoxy-cis-2,3-dihydro-5-[2-(dimethylamino)ethyl]-2-(p-methoxyphenyl)-1,5-benzothiazepin-4(5H)-one]
[1]; on ADM, diltiazem 10 μM
  Enhancement effect: 1.3
[1]; on ADM, diltiazem 35 μM
  Enhancement effect: 1.4
[1]; on ADM, diltiazem 100 μM
  Enhancement effect: 1.7
[1]; on VCR, diltiazem 10 μM
  Enhancement effect: 1.3
[1]; on VCR, diltiazem 35 μM
  Enhancement effect: 3.4
[1]; on VCR, diltiazem 100 μM
  Enhancement effect: 4.2
[2]; diltiazem 10 μM
  Enhancement effect: 4.5
[2]; diltiazem 35 μM
  Enhancement effect: 11.0
[2]; diltiazem 100 μM
  Enhancement effect: 19.3
[6]; diltiazem 10 μM, P388/VCR
  Enhancement effect: 9.7
[6]; diltiazem 35 μM, P388/VCR
  Enhancement effect: 28.8
[6]; diltiazem 100 μM, P388/VCR
  Enhancement effect: 54.0
[7]; diltiazem 10 μM
  Enhancement effect: 8.7
[7]; diltiazem 35 μM
  Enhancement effect: 48.8
[7]; diltiazem 100 μM
  Enhancement effect: 77.8
[8]; diltiazem 10 μM
  Enhancement effect: 1.5
[8]; diltiazem 35 μM
  Enhancement effect: 2.3
[8]; diltiazem 100 μM
  Enhancement effect: 3.4
[9]
  antitumor activity of the agents (ADM, VCR): the antitumor activity of the agents is enhanced by diltiazem

## CC[C@]1(O)C[C@H]2CN(CCc3c([nH]c4ccccc34)[C@@](C(=O)OC)(c3cc4c(cc3OC)N(C=O)[C@H]3[C@@](O)(C(=O)OC)[C@H](OC(C)=O)[C@]5(CC)C=CCN6CC[C@]43[C@@H]65)C2)C1 [VCR, vincristine]
[1]; P388, VCR, diltiazem 0 μM
  IC50: 1.88 ± 0.13 ng/mL (≈ 2.28 nM)
[1]; P388, VCR, with diltiazem 10 μM
  IC50: 1.43 ± 0.12 ng/mL (≈ 1.73 nM)
[1]; P388, VCR, with diltiazem 35 μM
  IC50: 0.56 ± 0.06 ng/mL (≈ 0.679 nM)
[1]; P388, VCR, with diltiazem 100 μM
  IC50: 0.45 ± 0.02 ng/mL (≈ 0.545 nM)
[1]; on VCR, diltiazem 0 μM
  Enhancement effect: 1
[10]
  ratio of IC50 dose (enhancement effect of diltiazem): 1.0
[11]
  ratio of IC50 dose (enhancement effect of diltiazem): 1.0
[12]
  ratio of IC50 dose (enhancement effect of diltiazem): 1.0
[13]
  ratio of IC50 dose (enhancement effect of diltiazem): 1.0
[6]; P388, VCR, diltiazem 0 μM, P388/VCR
  IC50: 29.7 ± 2.87 ng/mL (≈ 36 nM)
[6]; P388, VCR, with diltiazem 10 μM, P388/VCR
  IC50: 3.07 ± 0.09 ng/mL (≈ 3.72 nM)
[6]; P388, VCR, with diltiazem 35 μM, P388/VCR
  IC50: 1.03 ± 0.06 ng/mL (≈ 1.25 nM)
[6]; P388, VCR, with diltiazem 100 μM, P388/VCR
  IC50: 0.55 ± 0.17 ng/mL (≈ 0.667 nM)
[6]; P388, read-out: concentration of vincristine showing 50% inhibition of the resistant cells, with diltiazem (hydrochloride) 35 μM or 100 μM
  IC50: ≤ 1 ng/mL
[6]; diltiazem 0 μM, P388/VCR
  Enhancement effect: 1
[3]; after third administration of vincristine 1 mg per week
  number of leukocytes and splenoma: the number of leukocytes and the splenoma still increased
[3]; vincristine 1 mg per week and predonisolone 60 mg per day
  number of leukocytes and splenoma: the number of leukocytes and the splenoma were temporarity somewhat recovered
[7]; diltiazem 0 μM
  IC50: 200 ± 16.3 ng/mL (≈ 242 nM)
  Enhancement effect: 1
[7]; with diltiazem 10 μM
  IC50: 23 ± 2.16 ng/mL (≈ 27.9 nM)
[7]; with diltiazem 35 μM
  IC50: 4.1 ± 0.36 ng/mL (≈ 4.97 nM)
[7]; with diltiazem 100 μM
  IC50: 2.57 ± 0.41 ng/mL (≈ 3.12 nM)
[14]
  ratio of IC50 dose (enhancement effect of diltiazem): 1.0
[8]; diltiazem 0 μM
  IC50: 2.33 ± 0.24 ng/mL (≈ 2.82 nM)
  Enhancement effect: 1
[8]; with diltiazem 10 μM
  IC50: 1.52 ± 0.09 ng/mL (≈ 1.84 nM)
[8]; with diltiazem 35 μM
  IC50: 1 ± 0.17 ng/mL (≈ 1.21 nM)
[8]; with diltiazem 100 μM
  IC50: 0.69 ± 0.1 ng/mL (≈ 0.836 nM)
[15]
  ratio of IC50 dose (enhancement effect of diltiazem): 1.0
[4]; VCR 30 μg/kg alone
  Survival time: 10.6 ± 2.1 days
  T/C: 93%
  T/V: 100%
[4]; VCR 100 μg/kg alone
  Survival time: 10.8 ± 1.3 days
  T/C: 95%
  T/V: 100%
[4]; VCR 200 μg/kg alone
  Survival time: 12.4 ± 1.0 days
  T/C: 109%
  T/V: 100%
[16]
  ratio of IC50 dose (enhancement effect of diltiazem): 1.0
[17]
  ratio of IC50 dose (enhancement effect of diltiazem): 1.0
[18]
  ratio of IC50 dose (enhancement effect of diltiazem): 1.0
[19]
  ratio of IC50 dose (enhancement effect of diltiazem): 1.0
